Two compounds from the NIST ThermoML archive (doi:10.1016/j.jct.2015.01.015) can be followed below.

Structures are written as SMILES. ± gives the expanded uncertainty stated by the source.

Data set [1] can be described thus: Molar enthalpy of transition or fusion. As to conditions: Crystal; DSC.
The conditions of data set [2]: Crystal; DTA.

Regarding `NC(=O)c1cccnc1` [3-pyridinecarboxamide], the “Molar enthalpy of transition or fusion” value in data set [1] is 5.4 ± 0.335 kcal/mol. The Normal melting temperature in data set [2] came out at 128.6 ± 1.1 °C.
With `COc1ccc2c(c1)c(CC(=O)O)c(C)n2C(=O)c1ccc(Cl)cc1`, the “Molar enthalpy of transition or fusion” value in data set [1] came out at 9.06 ± 0.574 kcal/mol. In data set [2], the Normal melting temperature is 160.0 ± 1.1 °C.
